Toxic doses and inconclusive results are not listed. Rule as the data show it: active = T/C of 150% or more; inactive = T/C below 125%.
System: L1210 leukemia ip in BDF1 mice, survival T/C
Experiment: NCI In Vivo Anticancer Drug Screen. Data for tumor model L1210 Leukemia (intraperitoneal) in B6D2F1 (BDF1) mice
Settings: endpoint: mean survival time, higher = longer survival
In short: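 Mice bearing the transplanted tumor received compound or vehicle. Survival of the treated group was divided by that of the vehicle-treated control group to give the ratio.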

[1] = dose: 100.0 mg/kg/injection, schedule: Q01DX001 (ip), vehicle: saline
[2] = dose: 100.0 mg/kg/injection, schedule: Q01DX009 (ip), vehicle: saline
[3] = dose: 200.0 mg/kg/injection, schedule: Q01DX001 (ip), vehicle: saline
[4] = dose: 200.0 mg/kg/injection, schedule: Q01DX009 (ip), vehicle: saline
[5] = dose: 400.0 mg/kg/injection, schedule: Q01DX001 (ip), vehicle: saline
[6] = dose: 400.0 mg/kg/injection, schedule: Q01DX009 (ip), vehicle: saline
[7] = dose: 100.0 mg/kg/injection, schedule: Q04DX003 (ip), vehicle: saline
[8] = dose: 200.0 mg/kg/injection, schedule: Q04DX003 (ip), vehicle: saline
[9] = dose: 400.0 mg/kg/injection, schedule: Q04DX003 (ip), vehicle: saline
[10] = dose: 6.25 mg/kg/injection, schedule: Q01DX009 (ip), vehicle: Klucel (hydroxypropylcellulose) (HPC)
[11] = dose: 12.5 mg/kg/injection, schedule: Q01DX009 (ip), vehicle: Klucel (hydroxypropylcellulose) (HPC)
[12] = dose: 100.0 mg/kg/injection, schedule: Q01DX001 (ip), vehicle: Klucel (hydroxypropylcellulose) (HPC)
[13] = dose: 200.0 mg/kg/injection, schedule: Q01DX001 (ip), vehicle: Klucel (hydroxypropylcellulose) (HPC)
[14] = dose: 400.0 mg/kg/injection, schedule: Q01DX001 (ip), vehicle: Klucel (hydroxypropylcellulose) (HPC)
[15] = dose: 75.0 mg/kg/injection, schedule: Q01DX001 (ip), vehicle: saline
[16] = dose: 100.0 mg/kg/injection, schedule: Q01DX009 (ip), vehicle: Klucel (hydroxypropylcellulose) (HPC)
[17] = dose: 100.0 mg/kg/injection, schedule: Q04DX003 (ip), vehicle: Klucel (hydroxypropylcellulose) (HPC)
[18] = dose: 200.0 mg/kg/injection, schedule: Q01DX009 (ip), vehicle: Klucel (hydroxypropylcellulose) (HPC)
[19] = dose: 200.0 mg/kg/injection, schedule: Q04DX003 (ip), vehicle: Klucel (hydroxypropylcellulose) (HPC)
[20] = dose: 400.0 mg/kg/injection, schedule: Q01DX009 (ip), vehicle: Klucel (hydroxypropylcellulose) (HPC)
[21] = dose: 400.0 mg/kg/injection, schedule: Q04DX003 (ip), vehicle: Klucel (hydroxypropylcellulose) (HPC)

Measured: T/C

CCCS(=O)(=O)c1ccc(C)cc1
inactive: [1] 98 % of control | [2] 94 % of control | dose: 100.0 mg/kg/injection, schedule: Q04DX003 (ip), vehicle: acetone 100 % of control | [3] 98 % of control | [4] 93 % of control | dose: 200.0 mg/kg/injection, schedule: Q04DX003 (ip), vehicle: acetone 102 % of control | [5] 107 % of control | [6] 93 % of control | dose: 400.0 mg/kg/injection, schedule: Q04DX003 (ip), vehicle: acetone 100 % of control

CC(=O)N1CC(n2cnc3c(N)ncnc32)CC1CO (stereo unspecified)
inactive: dose: 12.5 mg/kg/injection, schedule: Q04DX002 (ip), vehicle: saline with Tween-80 102 % of control | dose: 25.0 mg/kg/injection, schedule: Q04DX002 (ip), vehicle: saline with Tween-80 98 % of control | dose: 50.0 mg/kg/injection, schedule: Q04DX002 (ip), vehicle: saline with Tween-80 94 % of control

CCO/C(=C\C(=O)c1ccccc1)c1ccccc1
inactive: dose: 50.0 mg/kg/injection, schedule: Q01DX009 (ip), vehicle: saline sonified 92 % of control | dose: 100.0 mg/kg/injection, schedule: Q01DX009 (ip), vehicle: saline sonified 95 % of control | dose: 200.0 mg/kg/injection, schedule: Q01DX009 (ip), vehicle: saline sonified 94 % of control

CO[C](=O)[Hg][c]1ccc(N=Cc2ccc(N(C)C)cc2Cl)cc1
inactive: dose: 1.56 mg/kg/injection, schedule: Q01DX001 (ip), vehicle: saline with Tween-80 99 % of control | dose: 3.13 mg/kg/injection, schedule: Q01DX001 (ip), vehicle: saline with Tween-80 103 % of control | dose: 6.25 mg/kg/injection, schedule: Q01DX001 (ip), vehicle: saline with Tween-80 89 % of control

CC(=O)CCC1(c2cc[n+](C)cc2)CCC(C)(O)C(C(C)=O)C1 (stereo unspecified)
inactive: [7] 93 % of control | [8] 94 % of control | [9] 100 % of control

CC(=O)c1sccc1C
inactive: [10] 93 % of control | [11] 92 % of control | dose: 12.5 mg/kg/injection, schedule: Q04DX003 (ip), vehicle: Klucel (hydroxypropylcellulose) (HPC) 101 % of control | dose: 25.0 mg/kg/injection, schedule: Q01DX009 (ip), vehicle: Klucel (hydroxypropylcellulose) (HPC) 90 % of control | dose: 25.0 mg/kg/injection, schedule: Q04DX003 (ip), vehicle: Klucel (hydroxypropylcellulose) (HPC) 92 % of control

COc1ccc2c(c1)CCC1=C(C)C(=O)CCC12C (stereo unspecified)
inactive: [12] 102 % of control | [13] 98 % of control | [14] 98 % of control

C=C(C)C1CCC2(C=O)CCC3(C)C(CCC4C5(C)CCC(O)C(C)(C)C5CCC43C)C12 (stereo unspecified)
inactive: dose: 18.75 mg/kg/injection, schedule: Q01DX009 (ip), vehicle: Klucel (hydroxypropylcellulose) (HPC) 100 % of control | dose: 37.5 mg/kg/injection, schedule: Q01DX009 (ip), vehicle: Klucel (hydroxypropylcellulose) (HPC) 93 % of control | dose: 75.0 mg/kg/injection, schedule: Q01DX009 (ip), vehicle: Klucel (hydroxypropylcellulose) (HPC) 89 % of control

NC(=O)C(O)C(Br)(Br)Br (stereo unspecified)
inactive: [2] 94 % of control | [7] 97 % of control | [4] 95 % of control | [8] 93 % of control | [6] 90 % of control | [9] 97 % of control

CC(=O)C1(C)C(=O)N(S(=O)(=O)c2ccc(C)cc2)C(=O)N1S(=O)(=O)c1ccc(C)cc1 (stereo unspecified)
inactive: [1] 91 % of control | [3] 89 % of control | [5] 100 % of control

CN(C)Cc1ccccc1CO
inactive: dose: 75.0 mg/kg/injection, schedule: Q04DX002 (ip), vehicle: Klucel (hydroxypropylcellulose) (HPC) 101 % of control | dose: 150.0 mg/kg/injection, schedule: Q04DX002 (ip), vehicle: Klucel (hydroxypropylcellulose) (HPC) 90 % of control | dose: 300.0 mg/kg/injection, schedule: Q04DX002 (ip), vehicle: Klucel (hydroxypropylcellulose) (HPC) 97 % of control

O=C(O)c1cc(Cl)c(Br)c(Cl)c1
inactive: dose: 100.0 mg/kg/injection, schedule: Q04DX002 (ip), vehicle: Klucel (hydroxypropylcellulose) (HPC) 100 % of control | dose: 200.0 mg/kg/injection, schedule: Q04DX002 (ip), vehicle: Klucel (hydroxypropylcellulose) (HPC) 107 % of control

O=C1/C(=C/c2ccccc2)CCC2C1CCCC21OCCO1 (stereo unspecified)
inactive: [15] 97 % of control | dose: 75.0 mg/kg/injection, schedule: Q04DX003 (ip), vehicle: saline 100 % of control | dose: 150.0 mg/kg/injection, schedule: Q01DX001 (ip), vehicle: saline 95 % of control | dose: 150.0 mg/kg/injection, schedule: Q04DX003 (ip), vehicle: saline 103 % of control | dose: 300.0 mg/kg/injection, schedule: Q01DX001 (ip), vehicle: saline 107 % of control | dose: 300.0 mg/kg/injection, schedule: Q04DX003 (ip), vehicle: saline 101 % of control

Cc1ccc(S(=O)(=O)N(C)CCC#N)cc1
inactive: [16] 97 % of control | [17] 100 % of control | [18] 96 % of control | [19] 98 % of control | [20] 96 % of control | [21] 96 % of control

[Cl][Sn]([c]1cccc2ccccc12)([c]1cccc2ccccc12)[c]1cccc2ccccc12
inactive: dose: 100.0 mg/kg/injection, schedule: Q04DX002 (ip), vehicle: saline with Tween-80 98 % of control | dose: 200.0 mg/kg/injection, schedule: Q04DX002 (ip), vehicle: saline with Tween-80 102 % of control | dose: 400.0 mg/kg/injection, schedule: Q04DX002 (ip), vehicle: saline with Tween-80 87 % of control

CCSC1C(OC(C)=O)C(C(COC(C)=O)OC(C)=O)OC1n1cnc2c(Cl)nc(Cl)nc21 (stereo unspecified)
inactive: dose: 100.0 mg/kg/injection, schedule: Q01DX005 (ip), vehicle: saline 109 % of control | dose: 200.0 mg/kg/injection, schedule: Q01DX005 (ip), vehicle: saline 109 % of control

Cc1nc(N)ccc1[N+](=O)[O-]
inactive: dose: 100.0 mg/kg/injection, schedule: Q04DX003 (ip), vehicle: saline sonified 98 % of control | dose: 200.0 mg/kg/injection, schedule: Q04DX003 (ip), vehicle: saline sonified 101 % of control | dose: 400.0 mg/kg/injection, schedule: Q04DX003 (ip), vehicle: saline sonified 104 % of control

CC(C)CCC[C@@H](C)[C@H]1CC[C@H]2[C@@H]3CCC(=O)[C@](C)(CCC(=O)O)[C@H]3CC[C@]12C
inactive: dose: 50.0 mg/kg/injection, schedule: Q04DX003 (ip), vehicle: alcohol 102 % of control | dose: 100.0 mg/kg/injection, schedule: Q04DX003 (ip), vehicle: alcohol 98 % of control | dose: 200.0 mg/kg/injection, schedule: Q04DX003 (ip), vehicle: alcohol 102 % of control

Cc1c(Br)c(=O)n(-c2ccccc2)n1C
inactive: dose: 50.0 mg/kg/injection, schedule: Q01DX009 (ip), vehicle: Klucel (hydroxypropylcellulose) (HPC) 94 % of control | [16] 98 % of control | [17] 101 % of control | [18] 100 % of control | [19] 100 % of control

O=C(O)C(=O)c1ccc(O)cc1O
inactive: [1] 111 % of control | [3] 103 % of control

O=C1c2cccc3cccc(c23)C(=O)N1CCN1C(=O)c2cccc3cccc(c23)C1=O
inactive: dose: 3.13 mg/kg/injection, schedule: Q01DX009 (ip), vehicle: Klucel (hydroxypropylcellulose) (HPC) 100 % of control | [10] 103 % of control | [11] 100 % of control

N/C(=N\O)c1ccc2ccc3cccnc3c2n1
inactive: dose: 100.0 mg/kg/injection, schedule: Q04DX003 (ip), vehicle: saline with Tween-80 102 % of control | dose: 200.0 mg/kg/injection, schedule: Q04DX003 (ip), vehicle: saline with Tween-80 87 % of control

Clc1ccc(/C=C2\c3cc(Cl)ccc3-c3c(Cl)cc(Cl)cc32)cc1
inactive: [12] 91 % of control | [16] 91 % of control | [17] 86 % of control | [13] 93 % of control | [18] 90 % of control | [19] 91 % of control | [14] 95 % of control | [20] 86 % of control | [21] 93 % of control

Brc1ccccn1
inactive: [15] 105 % of control
